Laboratory results taken from patent US20240181022A1, “AMURINS LYSINS, AND LYSIN-ANTIMICROBIAL PEPTIDE (AMP) CONSTRUCTS ACTIVE AGAINST GRAM-NEGATIVE BACTERIA” (priority 2021, published 2024).
“And” between values parts separate entries of the source, which are not always exact repeats. Equal entries are not always repeated. Where no end group is shown, it is not given here. [ ]: non-standard residue; d: D form.

Tests used:
P. aeruginosa = test: Checkerboard synergy assay (FICI) with antibiotics against P. aeruginosa; format: cell-based, Pseudomonas aeruginosa; conditions: for Antibiotic MIC (single agent): P. aeruginosa strain AR-769; for Antibiotic FIC / Antibiotic MIC (combo): P. aeruginosa strain AR-769, in combination with GN370; for Antibiotic MIC (combo): in µg/mL
Protocol: Any known method to assess MIC may be used.
Checkerboards are constructed by first preparing columns of e.g., a 96-well polypropylene microtiter plate, wherein each well has the same amount of antibiotic diluted 2-fold along the horizontal axis. […] Bacteria are added to the drug combinations at concentrations of 1×10^5 […] in CAA, for example, with or without human serum or pulmonary surfactant. […] Summation fractional inhibitory concentrations (ΣFICs) are calculated for each drug and the minimum ΣFIC value (ΣFICmin) is used to determine the effect of the Chp peptide/antibiotic combination.
The synergy of GN370 with meropenem was evaluated against 3 different strains of P. aeruginosa and three different strains of B. cenocepacia.
GN370 was further tested in combination with up to seven additional antibiotics (in addition to meropenem) against a variety of bacterial strains, including P. aeruginosa, A. baumannii, E. coli, E. cloacae, and K. pneumoniae. GN370 and the subject antibiotics were tested in a checkerboard assay format, and FICI values were determined, wherein ≤0.5 indicates synergy, >0.5-≤1 indicates additive; and >1 indicates indifferent.

M. smegmatis = test: MIC against M. smegmatis; format: cell-based, Mycobacterium smegmatis; conditions: M. smegmatis (MC 155); CAAT media
M. fortuitum = test: MIC against M. fortuitum; format: cell-based, Mycobacterium fortuitum; conditions: M. fortuitum (ATCC 6841); CAAT media
M. avium = test: MIC against M. avium; format: cell-based, Mycobacterium avium; conditions: M. avium (ATCC 700898); CAAT media
M. kansasii = test: MIC against M. kansasii; format: cell-based, Mycobacterium kansasii; conditions: M. kansasi (ATCC 12478); CAAT media
M. scrofulaceum = test: MIC against M. scrofulaceum; format: cell-based, Mycobacterium scrofulaceum; conditions: M. scrofulaceum (ATCC 19981); CAAT media
M. intracellulare = test: MIC against M. intracellulare; format: cell-based, Mycobacterium intracellulare; conditions: M. intracellulare (ATCC 13950); CAAT media
M. tuberculosis = format: cell-based, Mycobacterium tuberculosis; conditions: M. tuberculosis (ATCC 35817); (ADC, T) media

## CO/N=C(\C(=O)N[C@@H]1C(=O)N2C(C(=O)[O-])=C(C[N+]3(C)CCCC3)CS[C@H]12)c1csc(N)n1 [Cefepime]
P. aeruginosa
  Antibiotic MIC (single agent): 256 µg/mL
  Antibiotic FIC: 0.25 and 0.125
  Antibiotic MIC (combo): 64 and 32

## CC(C)(O/N=C(\C(=O)N[C@@H]1C(=O)N2C(C(=O)[O-])=C(C[n+]3ccccc3)CS[C@H]12)c1csc(N)n1)C(=O)O [Ceftazidime]
P. aeruginosa
  Antibiotic MIC (single agent): 512 µg/mL
  Antibiotic FIC: 1
  Antibiotic MIC (combo): 512

## AGT915: SEQ ID NO: 63, Marine gokushovirus (MRRYNVNKGKSAKKFRKQVSKTKVANLRSNPMRGGWRL; listed as Marine gokushovirus)
M. smegmatis
  MIC: 1 µg/mL
M. fortuitum
  MIC: 1 µg/mL
M. avium
  MIC: >64 Tg/mL
M. kansasii
  MIC: 1 µg/mL
M. scrofulaceum
  MIC: >64 µg/mL
M. intracellulare
  MIC: >64 µg/mL
M. tuberculosis
  MIC: 4 µg/mL

## ALCES1: SEQ ID NO: 59, Alces alces faeces associated microvirus (MAKKIRNKARDRRIFTRTASRMHKANRTPRFMRGGIRL; Alces alces faeces associated microvirus MP12 5423)
M. smegmatis
  MIC: 2 µg/mL
M. fortuitum
  MIC: 4 µg/mL
M. avium
  MIC: 8 Tg/mL
M. kansasii
  MIC: 2 µg/mL
M. scrofulaceum
  MIC: 2 µg/mL
M. intracellulare
  MIC: 2 µg/mL
M. tuberculosis
  MIC: 8 µg/mL

## AVQ206: SEQ ID NO: 60, Gokushovirinae environmental samples (MRRKKMSRGKSKKLFRRTAKRVHRKNLRARPMRGGIRM)
M. smegmatis
  MIC: 16 µg/mL
M. fortuitum
  MIC: 2 µg/mL
M. avium
  MIC: 1 Tg/mL
M. kansasii
  MIC: 2 µg/mL
M. scrofulaceum
  MIC: 4 µg/mL
M. intracellulare
  MIC: 4 µg/mL
M. tuberculosis
  MIC: 8 µg/mL

## Chp1: Chp peptide, SEQ ID NO: 1, Phage Chp1 (MVRRRRLRRRISRRIFRRTVARVGRRRRSFRGGIRF; Chlamydia virus Chp1)
M. smegmatis
  MIC: 16 µg/mL
M. fortuitum
  MIC: 16 µg/mL
M. avium
  MIC: 4 Tg/mL
M. kansasii
  MIC: 4 µg/mL
M. scrofulaceum
  MIC: 4 µg/mL
M. intracellulare
  MIC: 4 µg/mL
M. tuberculosis
  MIC: 32 µg/mL

## Chp4: Chp peptide, SEQ ID NO: 4, Phage 4 (MARRYRLSRRRSRRLFSRTALRMHRRNRLRRIMRGGIRF; Chlamydia phage 4)
M. smegmatis
  MIC: 4 µg/mL
M. fortuitum
  MIC: 4 µg/mL
M. avium
  MIC: 1 Tg/mL
M. kansasii
  MIC: >0.125 µg/mL
M. scrofulaceum
  MIC: 2 µg/mL
M. intracellulare
  MIC: 1 µg/mL
M. tuberculosis
  MIC: 16 µg/mL

## Chp8: Chp peptide, SEQ ID NO: 8 (MSKKRSRMSRRRSKKLFSKTALRTKSVNTRPPMRGGFRF; listed as Chlamydia trachomatis)
M. smegmatis
  MIC: 8 µg/mL
M. fortuitum
  MIC: 2 µg/mL
M. avium
  MIC: 8 Tg/mL
M. kansasii
  MIC: 4 µg/mL
M. scrofulaceum
  MIC: 4 µg/mL
M. intracellulare
  MIC: 4 µg/mL
M. tuberculosis
  MIC: 8 µg/mL

## Chp9: Chp peptide, SEQ ID NO: 9 (MSLRRHKLSRKASKRIFRKGASRTKTLNTRATPMRGGFRI; listed as Chlamydia trachomatis)
M. smegmatis
  MIC: 8 µg/mL
M. fortuitum
  MIC: 4 µg/mL
M. avium
  MIC: >64 Tg/mL
M. kansasii
  MIC: 8 µg/mL
M. scrofulaceum
  MIC: 8 µg/mL
M. intracellulare
  MIC: 4 µg/mL
M. tuberculosis
  MIC: 8 µg/mL

## Chp10: Chp peptide, SEQ ID NO: 10 (MKRRKLSKKKSRKIFTRGAVNVKKRNLRARPMRGGFRI; listed as Chlamydia trachomatis)
M. smegmatis
  MIC: 1 µg/mL
M. fortuitum
  MIC: 1 µg/mL
M. avium
  MIC: 0.5 Tg/mL
M. kansasii
  MIC: 4 µg/mL
M. scrofulaceum
  MIC: 0.5 µg/mL
M. intracellulare
  MIC: 0.5 µg/mL
M. tuberculosis
  MIC: 8 µg/mL

## Ecp2: SEQ ID NO: 18, hypothetical protein (E. coli) (MARSRRRMSKRSSRRSFRKYAKSHKKNFKARSMRGGIRL; listed as Escherichia coli)
M. smegmatis
  MIC: 8 µg/mL
M. fortuitum
  MIC: 4 µg/mL
M. avium
  MIC: 2 Tg/mL
M. kansasii
  MIC: 2 µg/mL
M. scrofulaceum
  MIC: 4 µg/mL
M. intracellulare
  MIC: 8 µg/mL
M. tuberculosis
  MIC: 4 µg/mL

## Ecp3-M1: Modified variant of Ecp3, SEQ ID NO: 100 (MA[dR]S[dR][dR][dR]MS[dK][dR]SS[dR][dR]SF[dR][dK]YA[dK]TH[dK][dK]NF[dK]A[dR]SM[dR]GGI[dR]L)
M. smegmatis
  MIC: 1 µg/mL
M. fortuitum
  MIC: 8 µg/mL
M. avium
  MIC: 0.5 Tg/mL
M. kansasii
  MIC: 2 µg/mL
M. scrofulaceum
  MIC: 2 µg/mL
M. intracellulare
  MIC: 8 µg/mL
M. tuberculosis
  MIC: 8 µg/mL

## Ecp3: SEQ ID NO: 55, nonstructural protein (Escherichia) (MARSRRRMSKRSSRRSFRKYAKTHKKNFKARSMRGGIRL; listed as Escherichia sp.)
M. smegmatis
  MIC: 8 µg/mL
M. fortuitum
  MIC: 2 µg/mL
M. avium
  MIC: 1 Tg/mL
M. kansasii
  MIC: 2 µg/mL
M. scrofulaceum
  MIC: 2 µg/mL
M. intracellulare
  MIC: 8 µg/mL
M. tuberculosis
  MIC: 8 µg/mL

## Fen7875: SEQ ID NO: 65, Gokushovirinae Fen7875_21 (MKPLKRKPVQKARSAAKFRRNVSTVKAANMAVKPMRGGWRF)
M. smegmatis
  MIC: 16 µg/mL
M. fortuitum
  MIC: 8 µg/mL
M. avium
  MIC: 2 Tg/mL
M. kansasii
  MIC: 32 µg/mL
M. scrofulaceum
  MIC: 16 µg/mL
M. intracellulare
  MIC: 8 µg/mL
M. tuberculosis
  MIC: 4 µg/mL

## Gkh1: SEQ ID NO: 13, Marine gokushovirus (MRRPRKMNYKKSKRMFSRTAARTHRKNSLRGSRPMRGGIRL; listed as Marine gokushovirus)
M. smegmatis
  MIC: 4 µg/mL
M. fortuitum
  MIC: 1 µg/mL
M. avium
  MIC: 4 Tg/mL
M. kansasii
  MIC: 2 µg/mL
M. scrofulaceum
  MIC: 8 µg/mL
M. intracellulare
  MIC: 4 µg/mL
M. tuberculosis
  MIC: 8 µg/mL

## HH3930: SEQ ID NO: 64, Richelia intracellularis HH01 (MRPVKRSRVNKARSAGKFRKQVGKTKMANLRSNPMRGGWRL)
M. smegmatis
  MIC: 16 µg/mL
M. fortuitum
  MIC: 8 µg/mL
M. avium
  MIC: 4 Tg/mL
M. kansasii
  MIC: 32 µg/mL
M. scrofulaceum
  MIC: 16 µg/mL
M. intracellulare
  MIC: 16 µg/mL
M. tuberculosis
  MIC: 4 µg/mL

## Spi1: SEQ ID NO: 25, Spiroplasma virus SpV4 Orf9 (MAYRGFKTSRVVKHRVRRRWFNHRRRYR; Spiroplasma virus SpV4)
M. smegmatis
  MIC: 16 µg/mL
M. fortuitum
  MIC: 8 µg/mL
M. avium
  MIC: >64 Tg/mL
M. kansasii
  MIC: 0.5 µg/mL
M. scrofulaceum
  MIC: 2 µg/mL
M. intracellulare
  MIC: 4 µg/mL
M. tuberculosis
  MIC: 16 µg/mL

## Spi2-M1: Modified variant of Spi2, SEQ ID NO: 99 (M[dR][dR][dK]V[dK]NT[dK][dR]HQW[dR]LTHSA[dR]SI[dK][dR]ANIMPSNP[dR]GG[dR][dR])
M. smegmatis
  MIC: 1 µg/mL
M. fortuitum
  MIC: 4 µg/mL
M. avium
  MIC: >64 Tg/mL
M. kansasii
  MIC: 4 µg/mL
M. scrofulaceum
  MIC: 16 µg/mL
M. intracellulare
  MIC: >64 µg/mL
M. tuberculosis
  MIC: 8 µg/mL

## Spi2: SEQ ID: 26, Spiroplasma virus SpV4 Orf8 (MRRKVKNTKRHQWRLTHSARSIKRANIMPSNPRGGRRF; Spiroplasma virus SpV4)
M. smegmatis
  MIC: 4 µg/mL
M. fortuitum
  MIC: 4 µg/mL
M. avium
  MIC: >64 Tg/mL
M. kansasii
  MIC: 1 µg/mL
M. scrofulaceum
  MIC: 8 µg/mL
M. intracellulare
  MIC: >64 µg/mL
M. tuberculosis
  MIC: 16 µg/mL

## Unp1: SEQ ID NO: 15, unnamed protein product (uncultured bacterium) (MKMRKRTDKRVFTRTAAKSKKVNIAPKIFRGGIRL)
M. smegmatis
  MIC: 2 µg/mL
M. fortuitum
  MIC: 8 µg/mL
M. avium
  MIC: 1 Tg/mL
M. kansasii
  MIC: 8 µg/mL
M. scrofulaceum
  MIC: 8 µg/mL
M. intracellulare
  MIC: 32 µg/mL
M. tuberculosis
  MIC: 4 µg/mL
